Data from paper PMC10854447 (Journal of Enzyme Inhibition and Medicinal Chemistry, 2024).

Columns and labels:
Caspase-3 = Caspase-3 activation assay; format: cell-based, human; details: A-594 cancer cell line; for Caspase-3 Fold change: vs untreated control cells
Bax = Bax level assay; format: cell-based, human; details: A-594 cancer cell line; for Bax Fold change: vs untreated control
Bcl-2 = Bcl-2 level assay; format: cell-based, human; details: A-594 cancer cell line; for Bcl-2 Fold reduction: vs untreated control
Cell viability assay = format: cell-based; details: human, MCF-10A normal mammary gland epithelial cells
[1] = tested on: lung cancer (A-549) cell line; test: cells; details: Homo sapiens, A549, read-out: Antiproliferative activity IC50 ± SEM, A-549
[2] = tested on: breast cancer (MCF-7) cell line; test: cells; details: Homo sapiens, MCF7, read-out: Antiproliferative activity IC50 ± SEM, MCF-7
[3] = tested on: pancreatic cancer (Panc-1) cell line; test: cells; details: Homo sapiens, PANC-1, read-out: Antiproliferative activity IC50 ± SEM, Panc-1
[4] = tested on: colon cancer (HT-29) cell line; test: cells; details: Homo sapiens, HT-29, read-out: Antiproliferative activity IC50 ± SEM, HT-29
[5] = tested on: four cancer cell lines (A-549, MCF-7, Panc-1, HT-29); test: Antiproliferative assay, average over the four cancer cell lines; details: for fold less potent than the reference Erlotinib (GI50): GI50 ratio vs Erlotinib
VEGFR-2 = VEGFR-2 (Homo sapiens, UniProt P35968); test: VEGFR-2 inhibitory assay; format: biochemical; details: VEGFR-2 inhibition IC50 ± SEM
Chain of VEGFR-2 (P35968 20-1356): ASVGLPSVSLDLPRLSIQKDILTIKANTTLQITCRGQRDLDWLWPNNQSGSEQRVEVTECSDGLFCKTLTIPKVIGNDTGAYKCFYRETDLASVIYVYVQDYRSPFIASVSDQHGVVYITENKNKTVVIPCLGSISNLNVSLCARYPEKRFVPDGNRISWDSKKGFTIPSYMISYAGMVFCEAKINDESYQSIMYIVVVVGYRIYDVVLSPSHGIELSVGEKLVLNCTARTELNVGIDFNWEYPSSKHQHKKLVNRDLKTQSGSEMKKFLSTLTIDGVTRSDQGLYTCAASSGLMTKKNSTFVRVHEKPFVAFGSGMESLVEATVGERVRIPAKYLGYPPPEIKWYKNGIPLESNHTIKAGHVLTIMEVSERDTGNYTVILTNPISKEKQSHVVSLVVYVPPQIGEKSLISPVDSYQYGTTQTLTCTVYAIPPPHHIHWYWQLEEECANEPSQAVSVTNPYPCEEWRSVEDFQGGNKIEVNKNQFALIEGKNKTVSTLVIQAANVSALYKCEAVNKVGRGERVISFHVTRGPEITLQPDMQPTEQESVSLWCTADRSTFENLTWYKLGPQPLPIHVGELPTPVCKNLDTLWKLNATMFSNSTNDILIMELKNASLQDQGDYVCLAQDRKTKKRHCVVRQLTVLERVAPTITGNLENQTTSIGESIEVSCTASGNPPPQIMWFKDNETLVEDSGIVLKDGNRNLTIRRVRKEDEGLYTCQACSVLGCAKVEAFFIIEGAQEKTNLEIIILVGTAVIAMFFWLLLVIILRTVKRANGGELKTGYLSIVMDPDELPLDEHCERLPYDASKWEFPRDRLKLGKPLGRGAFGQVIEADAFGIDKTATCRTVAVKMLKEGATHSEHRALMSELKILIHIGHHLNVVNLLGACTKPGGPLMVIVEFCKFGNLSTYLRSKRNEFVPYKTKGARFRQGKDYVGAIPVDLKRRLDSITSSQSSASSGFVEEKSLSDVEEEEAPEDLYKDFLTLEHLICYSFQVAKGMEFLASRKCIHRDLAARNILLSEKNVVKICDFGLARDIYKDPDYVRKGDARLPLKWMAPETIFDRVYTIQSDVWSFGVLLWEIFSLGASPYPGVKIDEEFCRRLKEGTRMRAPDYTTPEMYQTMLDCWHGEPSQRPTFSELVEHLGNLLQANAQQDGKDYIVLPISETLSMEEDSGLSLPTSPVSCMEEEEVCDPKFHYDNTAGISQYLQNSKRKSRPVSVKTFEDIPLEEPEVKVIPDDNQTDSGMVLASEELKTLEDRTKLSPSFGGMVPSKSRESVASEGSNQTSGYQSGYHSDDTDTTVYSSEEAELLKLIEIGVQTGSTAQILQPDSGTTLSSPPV

Caspase-8 = Caspase-8 level assay; format: cell-based, human; details: A-594 cancer cell line; for Caspase-8 Fold change: vs untreated control
EGFR = EGFR (Homo sapiens, UniProt P00533); test: EGFR inhibitory assay; format: biochemical
Chain of EGFR (P00533 669-1210): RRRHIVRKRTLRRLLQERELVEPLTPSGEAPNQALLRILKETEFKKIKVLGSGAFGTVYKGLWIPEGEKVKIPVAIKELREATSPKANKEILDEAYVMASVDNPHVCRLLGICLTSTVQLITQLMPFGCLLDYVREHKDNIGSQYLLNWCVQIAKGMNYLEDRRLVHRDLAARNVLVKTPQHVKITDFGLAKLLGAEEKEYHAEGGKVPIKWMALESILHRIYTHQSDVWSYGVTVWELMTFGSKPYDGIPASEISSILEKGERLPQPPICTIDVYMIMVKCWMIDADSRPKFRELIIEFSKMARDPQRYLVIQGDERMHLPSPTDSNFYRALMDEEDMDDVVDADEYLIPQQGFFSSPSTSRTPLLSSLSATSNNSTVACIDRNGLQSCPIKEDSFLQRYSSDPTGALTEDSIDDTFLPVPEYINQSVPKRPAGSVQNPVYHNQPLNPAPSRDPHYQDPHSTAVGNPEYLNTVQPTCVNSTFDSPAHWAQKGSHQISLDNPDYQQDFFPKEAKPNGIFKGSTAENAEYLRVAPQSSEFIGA

[6] = tested on: panel of four cancer cell lines; details: read-out: GI50 against four cancer cell lines; cited from earlier work

SMILES | Caspase-3 Conc (Caspase-3) [pg/mL] | Bax Conc (Bax) [pg/mL] | Bcl-2 Conc (Bcl-2) [ng/mL] | viability at 4 days, 50 µM (Cell viability assay) [%] | IC50 [1] [nM] | IC50 [2] [nM] | IC50 [3] [nM] | IC50 [4] [nM] | fold less potent than the reference Erlotinib (GI50) [5] [fold] | IC50 (VEGFR-2) [nM] | Caspase-3 Fold change (Caspase-3) | Caspase-8 Conc (Caspase-8) [ng/mL] | Caspase-8 Fold change (Caspase-8) | Bax Fold change (Bax) | Bcl-2 Fold reduction (Bcl-2) | IC50 (EGFR) [nM] | fold less active than the 3-halo-substituted derivatives 7i and 7h (GI50) ([5]; GI50 ratio vs 7i and 7h) [fold] | GI50 [6] [nM] | fold less potent than the 1-naphthyl derivative 7m (GI50) ([5]; GI50 ratio vs 7m) [fold]
CN[C@@H]1C[C@H]2O[C@@](C)([C@@H]1OC)n1c3ccccc3c3c4c(c5c6ccccc6n2c5c31)C(=O)NC4 [Staurosporine, reference compound] | 465 ± 4 | 288 | 1.00 |  |  |  |  |  |  |  |  |  |  |  |  |  |  |  | 
c1ccc(-c2cn(Cc3nc(-c4ccccc4)no3)nn2)cc1 [Compound 7a, 3-Phenyl-5-[(4-phenyl-1H-1,2,3-triazol-1-yl)methyl]-1,2,4-oxadiazole] |  |  |  | 90 | 94 ± 9 | 98 ± 9 | 96 ± 9 | 96 ± 9 | 3 |  |  |  |  |  |  |  |  |  | 
Cc1ccc(-c2noc(Cn3cc(-c4ccccc4)nn3)n2)cc1 [Compound 7e, 3-(4-Methylphenyl)-5-[(4-phenyl-1H-1,2,3-triazol-1-yl)methyl]-1,2,4-oxadiazole] |  |  |  | 91 | 98 ± 9 | 102 ± 9 | 100 ± 10 | 102 ± 10 | 3 |  |  |  |  |  |  |  |  |  | 
COc1cc(-c2noc(Cn3cc(-c4ccccc4)nn3)n2)cc(OC)c1OC [Compound 7l, 3-(3,4,5-Trimethoxyphenyl)-5-[(4-phenyl-1H-1,2,3-triazol-1-yl)methyl]-1,2,4-oxadiazole] | 587 ± 5 | 362 | 0.60 | 88 | 26 ± 2 | 30 ± 3 | 28 ± 2 | 28 ± 2 |  | 4.7 | 9 | 2.55 | 28 | 40 | 8 |  |  |  | 
COc1ccc(-c2noc(Cn3cc(-c4ccccc4)nn3)n2)cc1 [Compound 7f, 3-(4-Methoxyphenyl)-5-[(4-phenyl-1H-1,2,3-triazol-1-yl)methyl]-1,2,4-oxadiazole] |  |  |  | 90 | 48 ± 4 | 51 ± 5 | 48 ± 4 | 46 ± 4 |  |  |  |  |  |  |  |  |  |  | 
c1ccc(-c2cn(Cc3nc(-c4ccc5c(c4)OCO5)no3)nn2)cc1 [Compound 7o, 3-(2H-1,3-Benzodioxol-5-yl)-5-[(4-phenyl-1H-1,2,3-triazol-1-yl)methyl]-1,2,4-oxadiazole] |  |  |  | 91 | 74 ± 7 | 80 ± 8 | 78 ± 7 | 76 ± 7 |  |  |  |  |  |  |  |  |  |  | 
Brc1ccc(-c2noc(Cn3cc(-c4ccccc4)nn3)n2)cc1 [Compound 7d, 3-(4-Bromophenyl)-5-[(4-phenyl-1H-1,2,3-triazol-1-yl)methyl]-1,2,4-oxadiazole] |  |  |  | 88 | 80 ± 8 | 84 ± 8 | 80 ± 8 | 82 ± 8 |  |  |  |  |  |  |  |  |  |  | 
c1ccc(-c2cn(Cc3nc(-c4cccc5ccccc45)no3)nn2)cc1 [Compound 7m, 3-(Naphthalen-1-yl)-5-[(4-phenyl-1H-1,2,3-triazol-1-yl)methyl]-1,2,4-oxadiazole] |  |  |  | 87 | 42 ± 4 | 48 ± 4 | 46 ± 4 | 44 ± 4 | 1.4 |  |  |  |  |  |  |  |  |  | 
Clc1ccc(-c2noc(Cn3cc(-c4ccccc4)nn3)n2)cc1 [Compound 7c, 3-(4-Chlorophenyl)-5-[(4-phenyl-1H-1,2,3-triazol-1-yl)methyl]-1,2,4-oxadiazole] |  |  |  | 89 | 87 ± 8 | 94 ± 9 | 90 ± 9 | 92 ± 9 |  |  |  |  |  |  |  |  |  |  | 
Clc1ccc(-c2noc(Cn3cc(-c4ccccc4)nn3)n2)c(Cl)c1 [Compound 7j, 3-(2,4-Dichlorophenyl)-5-[(4-phenyl-1H-1,2,3-triazol-1-yl)methyl]-1,2,4-oxadiazole] | 460 ± 4 | 291 | 0.95 | 91 | 33 ± 3 | 36 ± 3 | 34 ± 3 | 36 ± 3 |  | 4.7 ± 0.04 | 7.0 | 2.00 | 22 | 32 | 5 | 89 ± 8 |  |  | 
COc1ccc(-c2noc(Cn3cc(-c4ccccc4)nn3)n2)cc1OC [Compound 7k, 3-(3,4-Dimethoxyphenyl)-5-[(4-phenyl-1H-1,2,3-triazol-1-yl)methyl]-1,2,4-oxadiazole] | 530 ± 5 | 310 | 0.80 | 89 | 30 ± 3 | 35 ± 3 | 32 ± 3 | 32 ± 3 |  | 3.8 ± 0.03 | 8 | 2.30 | 25 | 34 | 6 | 82 ± 7 |  |  | 
FC(F)(F)c1ccc(-c2noc(Cn3cc(-c4ccccc4)nn3)n2)cc1 [Compound 7g, 3-(4-Trifluoromethylphenyl)-5-[(4-phenyl-1H-1,2,3-triazol-1-yl)methyl]-1,2,4-oxadiazole] |  |  |  | 87 | 66 ± 6 | 68 ± 6 | 68 ± 6 | 66 ± 6 |  |  |  |  |  |  |  |  |  |  | 
Fc1ccc(-c2noc(Cn3cc(-c4ccccc4)nn3)n2)cc1 [Compound 7b, 3-(4-Fluorophenyl)-5-[(4-phenyl-1H-1,2,3-triazol-1-yl)methyl]-1,2,4-oxadiazole] |  |  |  | 91 | 102 ± 10 | 106 ± 10 | 104 ± 10 | 104 ± 10 |  |  |  |  |  |  |  |  | 2.5 |  | 
C#Cc1cccc(Nc2ncnc3cc(OCCOC)c(OCCOC)cc23)c1 [Erlotinib, reference compound] |  |  |  |  | 30 ± 3 | 40 ± 3 | 30 ± 3 | 30 ± 3 |  |  |  |  |  |  |  |  |  | 33 | 
c1ccc(-c2cn(Cc3nc(-c4ccc5ccccc5c4)no3)nn2)cc1 [Compound 7n, 3-(Naphthalen-2-yl)-5-[(4-phenyl-1H-1,2,3-triazol-1-yl)methyl]-1,2,4-oxadiazole] |  |  |  | 89 | 68 ± 6 | 74 ± 7 | 70 ± 7 | 72 ± 7 | 2.4 |  |  |  |  |  |  |  |  |  | 1.7
Clc1cccc(-c2noc(Cn3cc(-c4ccccc4)nn3)n2)c1 [Compound 7h, 3-(3-Chlorophenyl)-5-[(4-phenyl-1H-1,2,3-triazol-1-yl)methyl]-1,2,4-oxadiazole] |  |  |  | 90 | 40 ± 4 | 44 ± 4 | 40 ± 4 | 42 ± 4 |  | 6.9 ± 0.07 |  |  |  |  |  | 105 ± 10 |  |  | 
Brc1cccc(-c2noc(Cn3cc(-c4ccccc4)nn3)n2)c1 [Compound 7i, 3-(3-Bromophenyl)-5-[(4-phenyl-1H-1,2,3-triazol-1-yl)methyl]-1,2,4-oxadiazole] |  |  |  | 89 | 36 ± 3 | 39 ± 3 | 37 ± 3 | 37 ± 3 |  | 5.5 ± 0.05 |  |  |  |  |  | 97 ± 9 |  |  | 
